Patent publication US10494376B2, “Tetrahydroisoquinoline derived PRMT5-inhibitors” (CTXT PTY LTD, priority 2014, dated 2019)
Structures can show the parent of a compound that is named as a salt. Where two headings read alike, the source gives them in different places.

How the values were obtained:
[1] = target: Full-length PRMT5 enzyme (NCBI Reference sequence NP_006100.2) co-expressed with His6-MEP50 (Homo sapiens (Human), UniProt O14744); test: Revised PRMT5 Biochemical Assay; conditions: 1 μM peptide substrate, 1 μM S-Adenosyl methionine, 4 hours at 37 degree Celsius, Transcreener EPIGEN fluorescence polarisation
Full-length PRMT5 enzyme (NCBI Reference sequence NP_006100.2) co-expressed with His6-MEP50, sequence (O14744 whole entry): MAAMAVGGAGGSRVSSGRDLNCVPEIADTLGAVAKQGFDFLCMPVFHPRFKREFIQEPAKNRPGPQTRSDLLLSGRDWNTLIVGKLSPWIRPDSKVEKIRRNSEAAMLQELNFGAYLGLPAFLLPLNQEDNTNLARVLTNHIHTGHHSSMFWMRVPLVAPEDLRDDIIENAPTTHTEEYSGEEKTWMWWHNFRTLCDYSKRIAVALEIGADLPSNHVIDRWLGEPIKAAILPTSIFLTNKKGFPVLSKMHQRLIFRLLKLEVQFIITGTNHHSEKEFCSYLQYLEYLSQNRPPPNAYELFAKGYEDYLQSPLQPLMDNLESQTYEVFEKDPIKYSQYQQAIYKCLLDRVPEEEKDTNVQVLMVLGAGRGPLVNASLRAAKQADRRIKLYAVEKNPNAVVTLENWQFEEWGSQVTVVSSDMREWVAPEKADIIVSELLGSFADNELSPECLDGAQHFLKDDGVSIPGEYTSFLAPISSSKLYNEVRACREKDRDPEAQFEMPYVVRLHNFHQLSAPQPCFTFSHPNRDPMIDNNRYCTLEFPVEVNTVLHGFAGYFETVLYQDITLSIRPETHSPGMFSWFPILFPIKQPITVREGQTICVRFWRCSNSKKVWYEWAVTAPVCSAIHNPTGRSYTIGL
Full-length PRMT5 enzyme (NCBI Reference sequence NP_006100.2) co-expressed with His6-MEP50, sequence (Q9BQA1 whole entry partner): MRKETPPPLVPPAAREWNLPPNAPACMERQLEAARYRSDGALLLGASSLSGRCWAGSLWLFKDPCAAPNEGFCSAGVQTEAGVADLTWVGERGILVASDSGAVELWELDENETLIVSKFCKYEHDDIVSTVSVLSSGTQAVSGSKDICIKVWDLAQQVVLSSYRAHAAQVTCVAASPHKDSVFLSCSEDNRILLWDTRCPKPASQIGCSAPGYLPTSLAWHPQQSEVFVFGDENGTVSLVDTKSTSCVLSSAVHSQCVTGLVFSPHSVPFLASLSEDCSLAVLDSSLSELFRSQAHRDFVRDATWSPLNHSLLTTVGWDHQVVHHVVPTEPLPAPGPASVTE
Method in brief: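 Full-length PRMT5 co-expressed with His6-MEP50 in insect cells (15 ng/reaction) was run with 1 μM H4-derived peptide and 1 μM SAM in PBS, 0.01% Tween-20, 0.01% albumin and 1 mM DTT for 4 h at 37 °C. Product was read by Transcreener EPIGEN fluorescence polarisation, and IC50 came from a 4-parameter fit.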

[2] = system: symmetrical dimethylation of arginine (Di-Methyl Histone H4 Arginine 3) in cell line TE11; test: Revised PRMT5 Biomarker Assay (Di-Methyl Histone H4 Arginine 3 immunofluorescence); type: cell-based; conditions: TE11 cells, 72 hours
Procedure: Compounds of the invention may be tested for potency to inhibit symmetrical dimethylation of arginine in the following assay:
The cell line TE11 was seeded at a density of 6,000 cells per well in 96 well optical quality tissue culture plates in DME medium and 10% foetal bovine serum, and allowed to adhere for 5 hours under standard culture conditions (37 degree Celsius, 5% CO2). […] After incubation for 72 hours, the cells were fixed with 3.7% formaldehyde in PBS for 30 minutes at room temperature, washed with phosphate buffer saline and blocked with Odyssey blocking buffer (LI-COR, Lincoln, Nebr.). Rabbit anti-Di-Methyl Histone H4 Arginine 3 specific antibody (Epigentek) in Odyssey blocking buffer was added and incubated for 14 hours at 4 degree Celsius. […] Alternatively, the plates were imaged on a PerkinElmer Phenix high content imaging platform. […] The resulting mean intensity per cell was directly converted to percent inhibition as outlined above (IC50, imager based).

[3] = Homo sapiens, TE-11, PerkinElmer Envision fluorescence intensity, corrected for Hoechst 33342, read-out: IC50 - plate-reader based
[4] = Homo sapiens, TE-11, PerkinElmer Phenix high content imaging, mean intensity per cell, read-out: IC50 - image based

IC50 [1]	IC50 [2, 3]	SMILES	IC50 [2, 4]	IC50 ([2]; PerkinElmer Phenix high content imaging, mean intensity per cell, read-out: IC50 - image based)
0.168 µM	–	CCOc1cc(CC(=O)N2CCCC2)ccc1C(=O)NC[C@@H](O)[C@@H]1Cc2ccccc2CN1 [Example 79, 2-Ethoxy-N-((R)-2-hydroxy-2-((S)-1,2,3,4-tetrahydroisoquinolin-3-yl)ethyl)-4-(2-oxo-2-(pyrrolidin-1-yl)ethyl)benzamide hydrochloride]	0.003 µM	–
0.105 µM	0.254 µM	O=C(NC[C@@H](O)[C@@H]1Cc2ccccc2CN1)c1ccc(C(=O)N2CCS(=O)(=O)CC2)cc1 [Example 37, 4-(1,1-Dioxidothiomorpholine-4-carbonyl)-N-((R)-2-hydroxy-2-((S)-1,2,3,4-tetrahydroisoquinolin-3-yl)ethyl)benzamide]	–	–
0.061 µM	0.015 µM	CC(=O)N1CCC(Nc2cc(C(=O)NC[C@@H](O)[C@@H]3Cc4ccccc4CN3)ncn2)CC1 [Example 51, 6-((1-Acetylpiperidin-4-yl)amino)-N—((R)-2-hydroxy-2-((S)-1,2,3,4-tetrahydroisoquinolin-3-yl)ethyl)pyrimidine-4-carboxamide dichloride]	–	–
0.147 µM	–	O=C(NC[C@@H](O)[C@@H]1Cc2ccccc2CN1)c1ccnc(OC2CCOC2)c1 (stereo partly drawn) [Example 104, N—((R)-2-Hydroxy-2-((S)-1,2,3,4-tetrahydroisoquinolin-3-yl)ethyl)-2-((tetrahydrofuran-3-yl)oxy)isonicotinamide bis(2,2,2-trifluoroacetate)]	0.012 µM	–
0.18 µM	0.012 µM	O=C(NC[C@@H](O)[C@@H]1Cc2ccccc2CN1)c1ccc(C(=O)N2CCOCC2)cc1 [Example 28, N-((R)-2-Hydroxy-2-((S)-1,2,3,4-tetrahydroisoquinolin-3-yl)ethyl)-4-(morpholine-4-carbonyl)benzamide hydrochloride]	–	–
0.068 µM	0.005 µM	CC(=O)N1CCC(Oc2cc(C(=O)NC[C@@H](O)[C@@H]3Cc4ccccc4CN3)ccn2)CC1 [Example 102, 2-((1-Acetylpiperidin-4-yl)oxy)-N—((R)-2-hydroxy-2-((S)-1,2,3,4-tetrahydroisoquinolin-3-yl)ethyl)isonicotinamide]	–	–
0.161 µM	0.003 µM	CCOc1c(C(=O)NC[C@@H](O)[C@@H]2Cc3ccccc3CN2)ccc(C(=O)N2CCOCC2)c1C [Example 80, 2-Ethoxy-N-((R)-2-hydroxy-2-((S)-1,2,3,4-tetrahydroisoquinolin-3-yl)ethyl)-3-methyl-4-(morpholine-4-carbonyl)benzamide hydrochloride]	–	–
0.104 µM	–	O=C(NC[C@@H](O)[C@@H]1Cc2ccccc2CN1)c1ccc(N2CCOCC2)nc1 [Example 101, N—((R)-2-Hydroxy-2-((S)-1,2,3,4-tetrahydroisoquinolin-3-yl)ethyl)-6-morpholinonicotinamide]	0.01 µM	–
0.124 µM	0.081 µM	O=C(NC[C@@H](O)[C@@H]1Cc2ccccc2CN1)c1ccc2nc(C(F)(F)F)[nH]c2c1 [Example 84, N-((R)-2-Hydroxy-2-((S)-1,2,3,4-tetrahydroisoquinolin-3-yl)ethyl)-2-(trifluoromethyl)-1H-benzo[d]imidazole-6-carboxamide dihydrochloride]	–	–
0.044 µM	0.007 µM	COC(=O)N1CCC(Oc2cc(C(=O)NC[C@@H](O)[C@@H]3Cc4ccccc4CN3)ccn2)CC1 [Example 27, Methyl 4-((4-(((R)-2-hydroxy-2-((S)-1,2,3,4-tetrahydroisoquinolin-3-yl)ethyl)carbamoyl)pyridin-2-yl)oxy)piperidine-1-carboxylate bis(2,2,2-trifluoroacetic acid) salt]	–	–

The next lines start with the molecule.

SMILES	IC50 [1]	IC50 [2, 3]	IC50 [2, 4]	IC50 ([2]; PerkinElmer Phenix high content imaging, mean intensity per cell, read-out: IC50 - image based)
O=C(NC[C@@H](O)[C@@H]1Cc2ccccc2CN1)c1ccccc1 [Example 3, N-((R)-2-Hydroxy-2-((S)-1,2,3,4-tetrahydroisoquinolin-3-yl)ethyl)benzamide]	8.36 µM	1.46 µM	–	–
CCOc1cc(C(=O)N2C3CCCC2COC3)ccc1C(=O)NC[C@@H](O)[C@@H]1Cc2ccccc2CN1 [Example 55, 4-(3-Oxa-9-azabicyclo[3.3.1]nonane-9-carbonyl)-2-ethoxy-N—((R)-2-hydroxy-2-((S)-1,2,3,4-tetrahydroisoquinolin-3-yl)ethyl)benzamide]	0.016 µM	0.0004 µM	0.0002 µM	–
O=C(NC[C@@H](O)[C@@H]1Cc2ccccc2CN1)c1ccc(C(=O)N2C3CCC2COC3)cc1C(F)F [Example 106, 4-(3-Oxa-8-azabicyclo[3.2.1]octane-8-carbonyl)-2-(difluoromethyl)-N—((R)-2-hydroxy-2-((S)-1,2,3,4-tetrahydroisoquinolin-3-yl)ethyl)benzamide]	0.212 µM	–	0.005 µM	–
O=C(NC[C@@H](O)[C@@H]1Cc2ccccc2CN1)c1ccc(C(=O)N2C3CCCC2COC3)cc1 [Example 103, 4-(3-Oxa-9-azabicyclo[3.3.1]nonane-9-carbonyl)-N—((R)-2-hydroxy-2-((S)-1,2,3,4-tetrahydroisoquinolin-3-yl)ethyl)benzamide]	0.065 µM	0.004 µM	–	–
CCOc1cc(C(=O)N2C3CCC2COC3)ccc1C(=O)NC[C@@H](O)[C@@H]1Cc2ccccc2CN1 [Example 50, 4-(3-Oxa-8-azabicyclo[3.2.1]octane-8-carbonyl)-2-ethoxy-N—((R)-2-hydroxy-2-((S)-1,2,3,4-tetrahydroisoquinolin-3-yl)ethyl)benzamide hydrochloride]	0.019 µM	0.0003 µM	0.0003 µM	–
O=C(NC[C@@H](O)[C@@H]1Cc2ccccc2CN1)c1ccnc(OC2CCOCC2)c1 [Example 26, N-((R)-2-Hydroxy-2-((S)-1,2,3,4-tetrahydroisoquinolin-3-yl)ethyl)-2-((tetrahydro-2H-pyran-4-yl)oxy)isonicotinamide bis(2,2,2-trifluoroacetic acid) salt]	0.053 µM	0.015 µM	0.003 µM	–
CCOc1cc(CC(=O)N2C3CCC2COC3)ccc1C(=O)NC[C@@H](O)[C@@H]1Cc2ccccc2CN1 [Example 74]	0.338 µM	0.005 µM	–	–
CCOc1ccccc1C(=O)NC[C@@H](O)[C@@H]1Cc2ccccc2CN1 [Example 8, 2-Ethoxy-N-((R)-2-hydroxy-2-((S)-1,2,3,4-tetrahydroisoquinolin-3-yl)ethyl)benzamide]	16.5 µM	2.33 µM	–	–
O=C(NC[C@@H](O)[C@@H]1Cc2ccccc2CN1)c1ccc(C(=O)N2C3CCC2COC3)cc1Cl [Example 83, 4-(3-Oxa-8-azabicyclo[3.2.1]octane-8-carbonyl)-2-chloro-N-((R)-2-hydroxy-2-((S)-1,2,3,4-tetrahydroisoquinolin-3-yl)ethyl)benzamide]	0.065 µM	0.004 µM	–	–
O=C(NC[C@@H](O)[C@@H]1Cc2ccccc2CN1)c1ccc(C(=O)N2CCOCC2)cc1F [Example 15, 2-Fluoro-N-((R)-2-hydroxy-2-((S)-1,2,3,4-tetrahydroisoquinolin-3-yl)ethyl)-4-(morpholine-4-carbonyl)benzamide]	0.383 µM	0.023 µM	–	–
CCOc1cc(C(=O)N2C3CCC2COC3)c(F)cc1C(=O)NC[C@@H](O)[C@@H]1Cc2ccccc2CN1 [Example 69]	1.3 µM	0.003 µM	–	–
O=C(NC[C@@H](O)[C@@H]1Cc2ccccc2CN1)c1ccnc(OC2CCNCC2)c1 [Example 21, N-((R)-2-Hydroxy-2-((S)-1,2,3,4-tetrahydroisoquinolin-3-yl)ethyl)-2-(piperidin-4-yloxy)isonicotinamide]	0.07 µM	0.087 µM	–	–
COC(=O)N1[C@@H]2CC[C@H]1C[C@@H](Oc1cc(C(=O)NC[C@@H](O)[C@@H]3Cc4ccccc4CN3)ccn1)C2 [Example 105, Methyl (1R,3r,5S)-3-((4-(((R)-2-hydroxy-2-((S)-1,2,3,4-tetrahydroisoquinolin-3-yl)ethyl)carbamoyl)pyridin-2-yl)oxy)-8-azabicyclo[3.2.1]octane-8-carboxylate]	0.038 µM	–	–	0.001 µM
CCOc1cc(C(=O)N2C3CCC2COC3)ncc1C(=O)NC[C@@H](O)[C@@H]1Cc2ccccc2CN1 [Example 82, 6-(3-Oxa-8-azabicyclo[3.2.1]octane-8-carbonyl)-4-ethoxy-N-((R)-2-hydroxy-2-((S)-1,2,3,4-tetrahydroisoquinolin-3-yl)ethyl)nicotinamide dihydrochloride]	0.106 µM	–	0.008 µM	–
O=C(NC[C@@H](O)[C@@H]1Cc2ccccc2CN1)c1ccc(C(=O)N2C3CCC2COC3)cc1 [Example 49, 4-(3-Oxa-8-azabicyclo[3.2.1]octane-8-carbonyl)-N—((R)-2-hydroxy-2-((S)-1,2,3,4-tetrahydroisoquinolin-3-yl)ethyl)benzamide hydrochloride]	0.038 µM	0.006 µM	0.001 µM	–
O=C(NC[C@@H](O)[C@@H]1Cc2ccccc2CN1)c1ccc(C(=O)N2C3CCC2COC3)cc1F [Example 81, 4-(3-Oxa-8-azabicyclo[3.2.1]octane-8-carbonyl)-2-fluoro-N-((R)-2-hydroxy-2-((S)-1,2,3,4-tetrahydroisoquinolin-3-yl)ethyl)benzamide hydrochloride]	0.051 µM	0.003 µM	–	–
